Source: patent US7696203B2, “DNA-PK inhibitors” (Kudos Pharmaceuticals Limited, priority 2005, dated 2010)
Where two headings read alike, the source gives them in different places.

Tests used:
Mammalian DNA-PK = Mammalian DNA-PK (Homo sapiens, UniProt P78527); assay: DNA-PK inhibition assay (ELISA of p53 Ser15 phosphorylation of GST-p53N66); assay type: biochemical, human (isolated from HeLa cell nuclear extract)
Experimental: In order to assess the inhibitory action of the compounds against DNA-PK in vitro, the following assay was used to determine IC50 values.
To the assay mix, varying concentrations of inhibitor (in DMSO at a final concentration of 1%) were added. After 10 minutes of incubation, ATP was added to give a final concentration of 50 μM along with a 30 mer double stranded DNA oligonucleotide (final concentration of 0.5 ng/ml) to initiate the reaction. After 1 hour with shaking, 150 μl of phosphate buffered saline (PBS) was added to the reaction and 5 μl then transferred to a 96 well opaque white plate containing 45 μl of PBS per well where the GSTp53N66 substrate was allowed to bind to the wells for 1 hour. To detect the phosphorylation event on the serine 15 residue of p53 elicited by DNA-PK a p53 phosphoserine-15 antibody (Cell Signaling Technology) was used in a basic ELISA procedure. An anti-rabbit HRP conjugated secondary antibody (Pierce) was then employed in the ELISA before the addition of chemiluminescence reagent (NEN Renaissance) to detect the signal as measured by chemiluminescent counting via a TopCount NXT (Packard).
The enzyme activity for each compound is then calculated using the following equation: […]
These are determined over a range of different concentrations, normally from 10 μM down to 0.001 μM. Such IC50 values are used as comparative values to identify increased compound potencies.

cells = settings: ionising radiation, literature; cited from earlier work
HeLa cells = assay: Survival Enhancement Ratio (clonogenic survival after 2 Gray irradiation); assay type: cell-based, human; settings: inhibitor at 100 nM
Experimental: Survival Enhancement Ratio
The Survival Enhancement Ratio (SER) is a ratio of the enhancement of cell kill elicited by the DNA-PK inhibitor after 2 Grays of irradiation compared to unirradiated control cells. […] Radiation was delivered by a Faxitron 43855D machine at a dose rate of 1 Gy pre minute The SER at 2 Gray irradiation was calculated from the formula:
The degree of cell killing was monitored by a standard clonogenic survival assay. Briefly, tissue culture treated 6-well plates were seeded with HeLa cells at an appropriate concentration to give 100-200 colonies per well and returned to the incubator in order to allow the cells to attach. Four hours later, compound or vehicle control was added to the cells. The cells were then incubated for 1 hour in the presence of inhibitor prior to irradiation at 2 Gray using a Faxitron 43855D cabinet X-ray machine. The cells were then incubated for a further 16 hours before the media was replaced with fresh media in the absence of DNA-PK inhibitor. After 8 days, colonies formed were fixed and stained with Giemsa (Sigma, Poole, UK) and scored using an automated colony counter (Oxford Optronics Ltd, Oxford, UK). The data was calculated as described above.

[1] = DNA-PK from HeLa nuclear extract, 50 μM ATP, 30° C., read-out: IC50 (concentration at which 50% of the enzyme activity is inhibited), DNA-PK inhibition

O=c1cc(N2CCOCC2)nc2c(-c3ccc(O)c4c3sc3ccccc34)cccn12 [Compound 31, 9-(1-Hydroxy-dibenzothiophen-4-yl)-2-morpholin-4-yl-pyrido[2,1-a]pyrimidin-4-one]
IC50 (Mammalian DNA-PK; [1]): < 100 nM

Nc1ccc(-c2cccc3c(=O)cc(N4CCOCC4)[nH]c23)c2sc3ccccc3c12 [Compound 25, 8-(1-amino-dibenzothiophen-4-yl)-2-morpholin-4-yl-1H-quinolin-4-one]
IC50 (Mammalian DNA-PK; [1]): < 100 nM

O=C(CN1CCN(CCO)CC1)Nc1ccc(-c2cccc3c(=O)cc(N4CCOCC4)[nH]c23)c2oc3ccccc3c12 [Compound 42f]
IC50 (Mammalian DNA-PK; [1]): < 100 nM

O=c1cc(N2CCOCC2)[nH]c2c(-c3ccc([N+](=O)[O-])c4c3oc3ccccc34)cccc12 [Compound 28, 2-Morpholin-4-yl-8-(1-nitro-dibenzofuran-4-yl)-1H-quinolin-4-one]
melting point: 247 °C

COCCN1CCN(CC(=O)Nc2ccc(-c3cccc4c(=O)cc(N5CCOCC5)[nH]c34)c3oc4ccccc4c23)CC1 [Compound 42b]
IC50 (Mammalian DNA-PK; [1]): < 100 nM

O=C(CN1CCOCC1)Nc1ccc(-c2cccc3c(=O)cc(N4CCOCC4)[nH]c23)c2sc3ccccc3c12 [Compound 38b]
IC50 (Mammalian DNA-PK; [1]): < 100 nM

O=c1cc(N2CCOCC2)oc2c(-c3ccccc3)cccc12 [LY294002]
sensitisation of cells to the effects of IR (cells): weakly sensitise cells

C[C@@H]1CN(CC(=O)Nc2ccc(-c3cccc4c(=O)cc(N5CCOCC5)[nH]c34)c3oc4ccccc4c23)C[C@H](C)O1 [Compound 42d]
IC50 (Mammalian DNA-PK; [1]): < 100 nM

C[C@@H]1CN(CCC(=O)Nc2ccc(-c3cccc4c(=O)cc(N5CCOCC5)oc34)c3oc4ccccc4c23)C[C@H](C)O1 [Compound 45a]
IC50 (Mammalian DNA-PK; [1]): < 100 nM

O=c1cc(N2CCOCC2)nc2c(-c3cccc4c3oc3ccccc34)cccn12 [Compound 34b]
IC50 (Mammalian DNA-PK): < 100 nM

O=C(CCN1CCOCC1)Nc1ccc(-c2cccc3c(=O)cc(N4CCOCC4)oc23)c2oc3ccccc3c12 [Compound 45c]
IC50 (Mammalian DNA-PK; [1]): < 100 nM

O=c1cc(N2CCOCC2)oc2c(-c3cccc4c3sc3ccccc34)cccc12 [reference compound]
IC50 (Mammalian DNA-PK): 10 to 12 nM | SER (Survival Enhancement Ratio) (HeLa cells): 1.3

Nc1ccc(-c2cccn3c(=O)cc(N4CCOCC4)nc23)c2sc3ccccc3c12 [Compound 23, 9-(1-Amino-dibenzothiophen-4-yl)-2-morpholin-4-yl-pyrido[2,1-a]pyrimidin-4-one]
IC50 (Mammalian DNA-PK; [1]): < 100 nM
